Laboratory results from patent US10800782B2, “Inhibitors of cellular metabolic processes” (Agios Pharmaceuticals, Inc., priority 2016, dated 2020).

Each compound was assayed against T1, MAT2A (Homo sapiens, UniProt P31153) (assay: MAT2A biochemical assay (colorimetric inorganic phosphate detection, PiColorLock)). Conditions: recombinant His6-tagged MAT2A 1 μg/ml; 60 minutes preincubation at 25° C.; L-Met 80 μM, ATP 100 μM; 60 minutes reaction; read at 623 nm; read-out: MAT2A Inhibition Score.
T1 construct: His6; made in house; host or cells: SF9 insect cells
T1 sequence (P31153 whole entry): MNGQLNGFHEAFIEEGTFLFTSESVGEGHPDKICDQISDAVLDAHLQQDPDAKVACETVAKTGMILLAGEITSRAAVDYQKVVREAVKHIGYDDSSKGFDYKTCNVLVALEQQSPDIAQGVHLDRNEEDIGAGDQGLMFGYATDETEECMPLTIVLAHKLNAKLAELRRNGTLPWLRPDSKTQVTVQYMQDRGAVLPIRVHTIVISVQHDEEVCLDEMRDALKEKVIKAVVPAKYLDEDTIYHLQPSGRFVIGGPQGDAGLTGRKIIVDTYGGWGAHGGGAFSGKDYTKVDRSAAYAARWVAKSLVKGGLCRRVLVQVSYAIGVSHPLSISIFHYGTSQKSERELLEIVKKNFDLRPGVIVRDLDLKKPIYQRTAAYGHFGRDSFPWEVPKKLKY
Summary of the method: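 Colorimetric malachite green readout of phosphate released when MAT2A turns over L-Met and ATP, after 60 min at room temperature. Enzyme: SF9-expressed His6-tagged MAT2A at 1 μg/ml. Buffer: Tris pH 8.0, 50 mM KCl, 15 mM MgCl2, 300 uM EDTA, 0.005% BSA. Compounds tested as ten-point three-fold dilutions.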
`COc1ccc(-c2c(O)[nH]c3c(-c4ccccc4)c(-c4ccccc4)nn3c2=O)cc1` [Compound 290, 5-hydroxy-6-(4-methoxyphenyl)-2,3-diphenylpyrazolo[1,5-a]pyrimidin-7(4H)-one] showed an IC50 of under 0.1 µM. For `Cc1nc2ccc(-c3c(C)[nH]c4c(-c5ccccc5)c(-c5ccccc5)nn4c3=O)cc2cc1O` [Compound 247, 6-(3-hydroxy-2-methylquinolin-6-yl)-5-methyl-2,3-diphenylpyrazolo[1,5-a]pyrimidin-7(4H)-one], the IC50 was under 0.1 µM. `COc1ccc(-c2c(Nc3cccc(C#N)n3)[nH]c3c(-c4ccccc4)c(-c4ccccc4)nn3c2=O)cc1` [Compound 111, 6-((6-(4-methoxyphenyl)-7-oxo-2,3-diphenyl-4,7-dihydropyrazolo[1,5-a]pyrimidin-5-yl)amino)picolinonitrile] was tested, and the IC50 was under 0.1 µM. With `Cc1[nH]c2c(-c3ccccc3)c(-c3ccccc3)nn2c(=O)c1-c1ccc2c(c1)NC(=O)CO2` [Compound 257, 6-(5-methyl-7-oxo-2,3-diphenyl-4,7-dihydropyrazolo[1,5-a]pyrimidin-6-yl)-2H-benzo[b][1,4]oxazin-3 (4H)-one] the IC50 was under 0.1 µM. `COc1ccc(-c2c(Nc3ccc(O)cn3)[nH]c3c(-c4ccccc4)c(-c4ccccc4)nn3c2=O)cc1` [Compound 108, 5-(5-hydroxypyridin-2-ylamino)-6-(4-methoxyphenyl)-2,3-diphenylpyrazolo[1,5-a]pyrimidin-7(4H)-one] showed an IC50 of under 0.1 µM. For `COc1ccc(-c2c(Nc3cnc(N)cn3)[nH]c3c(C4=CCCCC4)c(-c4ccccc4)nn3c2=O)cc1` [Compound 160, 5-((5-aminopyrazin-2-yl)amino)-3-(cyclohex-1-en-1-yl)-6-(4-methoxyphenyl)-2-phenylpyrazolo[1,5-a]pyrimidin-7(4H)-one], the IC50 was under 0.1 µM. `COc1ccc(-c2c(Nc3cnc(C#N)cn3)[nH]c3c(-c4ccccc4)c(-c4ccccc4)nn3c2=O)cc1` [Compound 129, 5-(6-(4-methoxyphenyl)-7-oxo-2,3-diphenyl-4,7-dihydropyrazolo[1,5-a]pyrimidin-5-ylamino)pyrazine-2-carbonitrile] showed an IC50 of under 0.1 µM. Compound `COc1ccc(-c2c(Oc3ccccc3)[nH]c3c(-c4ccccc4)c(-c4ccccc4)nn3c2=O)cc1` [Compound 355, 6-(4-methoxyphenyl)-5-phenoxy-2,3-diphenylpyrazolo[1,5-a]pyrimidin-7(4H)-one] has an IC50 of 1 to 10 µM. Compound `CCOC(=O)c1ncsc1Nc1[nH]c2c(-c3ccccc3)c(-c3ccccc3)nn2c(=O)c1-c1ccc(OC)cc1` [Compound 150, ethyl 5-((6-(4-methoxyphenyl)-7-oxo-2,3-diphenyl-4,7-dihydropyrazolo[1,5-a]pyrimidin-5-yl)amino)thiazole-4-carboxylate] has an IC50 of under 0.1 µM. Work on `O=c1c(-c2ccc3ncccc3c2)c(Nc2ccccn2)[nH]c2c(-c3ccccc3)c(-c3ccccc3)nn12` [Compound 168, 2,3-diphenyl-5-(pyridin-2-ylamino)-6-(quinolin-6-yl)pyrazolo[1,5-a]pyrimidin-7(4H)-one] yielded an IC50 of under 0.1 µM. `COc1cnc2ccc(-c3c(C)[nH]c4c(-c5ccccc5)c(-c5ccccc5)nn4c3=O)cc2n1` [Compound 254, 6-(3-methoxy-quinoxalin-6-yl)-5-methyl-2,3-diphenylpyrazolo[1,5-a]-pyrimidin-7(4H)-one] gave an IC50 of under 0.1 µM. For `COc1ccc(-c2c(NC(=O)CN)[nH]c3c(-c4ccccc4)c(-c4ccccc4)nn3c2=O)cc1` [Compound 283, 2-amino-N-(6-(4-methoxyphenyl)-7-oxo-2,3-diphenyl-4,7-dihydropyrazolo[1,5-a]pyrimidin-5-yl)acetamide], the IC50 was under 0.1 µM. In the case of `COc1ccc(-c2c(Nc3ccc([N+](=O)[O-])cn3)[nH]c3c(-c4ccccc4)c(-c4ccccc4)nn3c2=O)cc1` [Compound 107, 6-(4-methoxyphenyl)-5-((5-nitropyridin-2-yl)amino)-2,3-diphenylpyrazolo[1,5-a]pyrimidin-7(4H)-one], the IC50 is reported as under 0.1 µM. `COc1ccc(-c2c(Nc3ccnc(OC)n3)[nH]c3c(-c4ccccc4)c(-c4ccccc4)nn3c2=O)cc1` [Compound 118, 6-(4-methoxyphenyl)-5-((2-methoxypyrimidin-4-yl)amino)-2,3-diphenylpyrazolo[1,5-a]pyrimidin-7(4H)-one] was tested, and the IC50 was under 0.1 µM. With `COc1ccc(-c2c(Oc3cccnn3)[nH]c3c(-c4ccccc4)c(-c4ccccc4)nn3c2=O)cc1` [Compound 354, 6-(4-methoxyphenyl)-2,3-diphenyl-5-(pyridazin-3-yloxy)pyrazolo[1,5-a]pyrimidin-7(4H)-one] the IC50 was 1 to 10 µM. `COc1ccc(-c2c(Nc3cnccn3)[nH]c3c(-c4ccccc4)c(-c4ccccc4)nn3c2=O)cc1` [Compound 126, 6-(4-methoxyphenyl)-2,3-diphenyl-5-(pyrazin-2-ylamino)pyrazolo[1,5-a]pyrimidin-7(4H)-one] gave an IC50 of under 0.1 µM. In the case of `Cc1[nH]c2c(C3=CCCC3)c(-c3ccccc3)nn2c(=O)c1-c1ccc2ncccc2c1` [Compound 215, 3-(cyclopent-1-en-1-yl)-5-methyl-2-phenyl-6-(quinolin-6-yl)pyrazolo[1,5-a]pyrimidin-7(4H)-one], the IC50 is reported as under 0.1 µM. `CNCc1[nH]c2c(-c3ccccc3)c(-c3ccccc3)nn2c(=O)c1-c1ccc2ncccc2c1` [Compound 278, 5-((methylamino)methyl)-2,3-diphenyl-6-(quinolin-6-yl)pyrazolo[1,5-a]pyrimidin-7(4H)-one] showed an IC50 of under 0.1 µM. With `COc1ccc(-c2c(CO)[nH]c3c(C4=CCCCC4)c(-c4ccccc4)nn3c2=O)cc1` [Compound 229, 3-(cyclohex-1-en-1-yl)-5-(hydroxymethyl)-6-(4-methoxyphenyl)-2-phenylpyrazolo[1,5-a]pyrimidin-7(4H)-one] the IC50 was under 0.1 µM. Work on `Cc1[nH]c2c(N3CCCCC3)c(-c3ccccc3)nn2c(=O)c1-c1ccc2[nH]c(N)nc2c1` [Compound 268, 6-(2-amino-1H-benzo[d]imidazol-5-yl)-5-methyl-2-phenyl-3-(piperidin-1-yl)pyrazolo[1,5-a]pyrimidin-7(4H)-one] yielded an IC50 of under 0.1 µM. In the case of `Cc1[nH]c2c(N3CCC(F)(F)C3)c(-c3ccccc3)nn2c(=O)c1-c1ccc2nccn2c1` [Compound 317, 3-(3,3-difluoropyrrolidin-1-yl)-6-(imidazo[1,2-a]pyridin-6-yl)-5-methyl-2-phenylpyrazolo[1,5-a]pyrimidin-7(4H)-one], the IC50 is reported as 0.1 to 1 µM. `COc1ccc(-c2c(Nc3cnc(C#N)cn3)[nH]c3c(C4=CCCCC4)c(-c4ccccc4)nn3c2=O)cc1` [Compound 159, 5-(3-cyclohexenyl-6-(4-methoxyphenyl)-7-oxo-2-phenyl-4,7-dihydropyrazolo[1,5-a]pyrimidin-5-ylamino)pyrazine-2-carbonitrile] gave an IC50 of under 0.1 µM. `O=c1c(-c2ccc3ncccc3c2)c(Cc2ncn[nH]2)[nH]c2c(-c3ccccc3)c(-c3ccccc3)nn12` [Compound 321, 5-((1H-1,2,4-triazol-5-yl)methyl)-2,3-diphenyl-6-(quinolin-6-yl)pyrazolo[1,5-a]pyrimidin-7(4H)-one] gave an IC50 of 0.1 to 1 µM. For `COc1ccc(-c2c(Nc3ncnc(N)n3)[nH]c3c(-c4ccccc4)c(-c4ccccc4)nn3c2=O)cc1` [Compound 134, 5-((4-amino-1,3,5-triazin-2-yl)amino)-6-(4-methoxyphenyl)-2,3-diphenylpyrazolo[1,5-a]pyrimidin-7(4H)-one], the IC50 was under 0.1 µM. Compound `COc1ccc(-c2c(Nc3ccn[nH]3)[nH]c3c(C4=CCCCC4)c(-c4ccccc4)nn3c2=O)cc1` [Compound 189, 5-((1H-pyrazol-5-yl)amino)-3-(cyclohex-1-en-1-yl)-6-(4-methoxyphenyl)-2-phenyl pyrazolo[1,5-a]pyrimidin-7(4H)-one] has an IC50 of under 0.1 µM. `Cc1[nH]c2c(N3CCCCC3)c(-c3ccccc3)nn2c(=O)c1-c1cccc(N)c1` [Compound 301, 6-(3-aminophenyl)-5-methyl-2-phenyl-3-(piperidin-1-yl)pyrazolo[1,5-a]pyrimidin-7(4H)-one] gave an IC50 of 0.1 to 1 µM. Work on `Cc1[nH]c2c(N3CCC(F)(F)C3)c(-c3ccccc3)nn2c(=O)c1-c1ccc2ncccc2c1` [Compound 316, 3-(3,3-difluoropyrrolidin-1-yl)-5-methyl-2-phenyl-6-(quinolin-6-yl)pyrazolo[1,5-a]pyrimidin-7(4H)-one] yielded an IC50 of 0.1 to 1 µM. `O=c1c(-c2ccc3ncccc3c2)c(Nc2ccn[nH]2)[nH]c2c(C3=CCCCC3)c(-c3ccccc3)nn12` [Compound 190, 5-((1H-pyrazol-5-yl)amino)-3-(cyclohex-1-en-1-yl)-2-phenyl-6-(quinolin-6-yl)pyrazolo[1,5-a]pyrimidin-7(4H)-one] showed an IC50 of under 0.1 µM. For `CN1CCOc2ccc(-c3c(Nc4ccccn4)[nH]c4c(-c5ccccc5)c(-c5ccccc5)nn4c3=O)cc21` [Compound 198, 6-(4-methyl-3,4-dihydro-2H-benzo[b][1,4]oxazin-6-yl)-2,3-diphenyl-5-(pyridin-2-ylamino)pyrazolo[1,5-a]pyrimidin-7(4H)-one], the IC50 was under 0.1 µM. `O=c1c(-c2ccc(O)cc2)c(Nc2nc[nH]n2)[nH]c2c(-c3ccccc3)c(-c3ccccc3)nn12` [Compound 195, 5-((1H-1,2,4-triazol-3-yl)amino)-6-(4-hydroxyphenyl)-2,3-diphenylpyrazolo[1,5-a]pyrimidin-7(4H)-one] gave an IC50 of under 0.1 µM. In the case of `CCNC(=O)c1nnc(Nc2[nH]c3c(-c4ccccc4)c(-c4ccccc4)nn3c(=O)c2-c2ccc3ncccc3c2)o1` [Compound 199, N-ethyl-5-((7-oxo-2,3-diphenyl-6-(quinolin-6-yl)-4,7-dihydropyrazolo[1,5-a]pyrimidin-5-yl)amino)-1,3,4-oxadiazole-2-carboxamide], the IC50 is reported as under 0.1 µM. In the case of `CCOc1ccc(-c2c(C)[nH]c3c(-c4ccccc4)c(-c4ccccc4)nn3c2=O)cc1` [Compound 210, 6-(4-ethoxyphenyl)-5-methyl-2,3-diphenylpyrazolo[1,5-a]pyrimidin-7(4H)-one], the IC50 is reported as under 0.1 µM. Compound `O=c1c(-c2ccc3nccnc3c2)c(Nc2ccn[nH]2)[nH]c2c(C3=CCCCC3)c(-c3ccccc3)nn12` [Compound 191, 5-((1H-pyrazol-5-yl)amino)-3-(cyclohex-1-en-1-yl)-2-phenyl-6-(quinoxalin-6-yl)pyrazolo[1,5-a]pyrimidin-7(4H)-one] has an IC50 of under 0.1 µM.
